From patent publication US8263738B2, “Estrogen receptors and methods of use” (Creighton University, priority 2004, dated 2012)

Columns and labels:
[1] = system: ER-α66 negative MDA-MB-231 cells; assay: Anchorage-independent growth in soft agar; type: cell-based, human; details: three weeks
Text: The cells were then overlaid onto a 0.7% (wt/vol) agar containing phenol-red free DMEM/F12 medium plus 10% E2-free fetal calf serum in five replica 60 mm dishes. […] After three weeks, colonies were scored using an inverted microscope.

[2] = system: control 293 cells transfected with empty expression vector; assay: Western blot of ERK1/2 phosphorylation in control 293 cells transfected with empty vector; type: cell-based, human
Description: (§1) Cell culture, establishment of stable cell lines and membrane-labeling with E2-BSA-FITC. MCF10A cells were obtained from Karmanos Cancer Institute at Detroit, Mich., and human embryonic kidney 293 cells, and all breast cancer cells were obtained from ATCC. All cells were maintained at 37° C. in a 5% CO2 atmosphere in appropriate tissue culture medium. […] The ER-α36 expression vector was constructed by cloning a 1.1-kb EcoRI-BamHI cDNA fragment of ER-α36 from pBS-ER-α36 into the EcoRI and BamHI sites of mammalian expression vector pCB6+. Empty vector was also transfected into cells to serve as controls. Forty-eight hours after transfection, the cells were replated and selected with 500 μg/ml of G418 (Invitrogen) for two weeks. The resulting uncloned population of G418-resistant cells was expanded to generate cells used for further analysis.
(§2) Western blot analysis, indirect immunofluorescence and antibodies. For Western blot analysis, cells were disrupted with RIPA buffer, boiled in gel loading buffer and separated on a 10% SDS-PAGE gel. After electrophoresis, the proteins were transferred to a PVDF membrane (Millipore). The filter was probed with various antibodies and visualized with appropriate HRP-conjugated secondary antibodies (Santa Cruz Biotechnology) and ECL reagents (Perkin Elmer Life Sciences).
Antibody against ERK1/2 (K-23) was purchased from Santa Cruz Biotechnology. […]

ER-α36 transfected cells = details: for block of E2β-stimulated cell growth by anti-estrogens: 10 nM anti-estrogen with E2β; for block of E2β-stimulated cell growth by anti-estrogens / growth of ER-α36 transfected cells, anti-estrogen alone: 48 hours; for growth of ER-α36 transfected cells, anti-estrogen alone: 10 nM
MDA-MB-231 cells = details: high concentration of Tamoxifen; cited from earlier work
[3] = system: control cells transfected with empty expression vector; assay: MTT proliferation assay, control cells transfected with empty expression vector; type: cell-based, human; details: E2β
[4] = system: ER-α66 negative MDA-MB-231 cells; assay: Western blot of ERK1/2 phosphorylation in MDA-MB-231 cells; type: cell-based, human; details: 1 nM E2β, serum starved cells, different time periods
Text: For Western blot analysis, cells were disrupted with RIPA buffer, boiled in gel loading buffer and separated on a 10% SDS-PAGE gel. After electrophoresis, the proteins were transferred to a PVDF membrane (Millipore). The filter was probed with antibody against ERK1/2 (K-23) (Santa Cruz Biotechnology), or antibody used against the phosphorylated form of ERK1/2 (Cell Signaling Technology).

[5] = system: control cells transfected with empty vector; assay: GAL-Elk / 5×Gal4-LUC luciferase reporter in control cells transfected with empty vector; details: E2β
ER-α36 [6] = target: T1, ER-α36 (Homo sapiens, UniProt P03372); assay: Western blot of MAPK pathway activation (ERK1/2, Mek1 phosphorylation) in ER-α36 transfected HEK293 cells; type: cell-based; details: treated for 10 minutes
T1 construct: expressed in transfected cells; transient transfectants for A11
T1 sequence (P03372 1-310 isoform P03372-4 I279L): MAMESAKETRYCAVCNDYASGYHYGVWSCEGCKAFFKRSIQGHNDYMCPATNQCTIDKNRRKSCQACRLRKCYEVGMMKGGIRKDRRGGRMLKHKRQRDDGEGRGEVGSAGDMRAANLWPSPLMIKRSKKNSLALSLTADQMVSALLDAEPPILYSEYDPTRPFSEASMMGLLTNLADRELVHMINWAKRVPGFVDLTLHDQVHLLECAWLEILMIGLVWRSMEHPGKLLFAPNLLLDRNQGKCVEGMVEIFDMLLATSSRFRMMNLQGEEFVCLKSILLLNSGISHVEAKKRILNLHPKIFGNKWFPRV
Description: as §1, §2
(§3) Antibody against ERK1/2 (K-23) was purchased from Santa Cruz Biotechnology. Antibodies used to analyze activation of the MAP kinase pathway included the phosphorylated forms of Mek1 and ERK1/2, and were purchased from Cell Signaling Technology. Rat anti-ER-α antibody (H222) was purchased from Research Diagnostic Inc. Antibodies of COPB (Y-20), mSin3A (AK-11), and 5′ nucleotidase (H-300) were purchased from Santa Cruz biotechnology Inc. D4-GDI (clone 97A1015) was obtained from Upstate Biotechnology.

ER-α36 [7] = target: T2, ER-α36 (Homo sapiens, UniProt P03372, I452L); assay: as above; type: cell-based
T2 construct: expressed in transfected cells; transient transfectants for A11
T2 sequence (P03372 1-310 isoform P03372-4 I279L): T1 sequence (P03372 1-310 isoform P03372-4 I279L)
Description: as §1, §2, §3

[8] = system: neurons of ER-α gene knockout (aERKO) mice; details: cited from earlier work

## CC/C(=C(\c1ccccc1)c1ccc(OCCN(C)C)cc1)c1ccccc1 [Tamoxifen]
[1]; 1 nM E2β combined with 1 nM tamoxifen
  effect of Tamoxifen on E2β-promoted growth in soft agar: inhibits the effect of E2β
[2]; same concentration (1 μM), empty vector 293 cells
  ERK1/2 activation by Tamoxifen in control cells: had no effect
ER-α36 transfected cells
  block of E2β-stimulated cell growth by anti-estrogens: did not block
  growth of ER-α36 transfected cells, anti-estrogen alone: strongly stimulated growth
MDA-MB-231 cells
  apoptosis in MDA-MB-231 cells: induce apoptosis

## N#CC(=C(/N)Sc1ccccc1N)/C(C#N)=C(/N)Sc1ccccc1N [UO126]
ER-α36 transfected cells; 7.2 nM UO126, 48 hours
  inhibition of E2β-stimulated cell growth: strongly inhibited

## C[C@]12CC[C@@H]3c4ccc(O)cc4CC[C@H]3[C@@H]1CC[C@@H]2O [E2β, 17β-estradiol]
[1]; 1 nM E2β
  anchorage-independent growth in soft agar: strongly promoted
[3]
  growth of control cells: had no effect
[4]
  phosphorylation of ERK1/2 in MDA-MB-231 cells: induced rapid phosphorylation
[2]; E2β 10 nM, empty vector cells
  increase in the phosphorylation of ERK1/2 in control cells: not in the control cells
[5]
  transcription activity of the Elk/Gal4 fusion protein in control cells: had no effect

## C[C@]12CC[C@@H]3c4ccc(O)cc4CC[C@H]3[C@@H]1[C@@H](O)[C@@H](O)[C@@H]2O [E4, estetrol]
ER-α36 [6]
  activation of ERK1/2 phosphorylation by estrogens: activated ERK1/2 phosphorylation at a very similar level

## 4OH-Tamoxifen
ER-α36 [7]
  block of ERK1/2 activation mediated by ER-α36 by anti-estrogens: did not block
  effect on ERK1/2 activation compared to E2β alone: even stronger
ER-α36 transfected cells
  block of E2β-stimulated cell growth by anti-estrogens: did not block
  growth of ER-α36 transfected cells, anti-estrogen alone: strongly stimulated growth

## C[C@]12CC[C@@H]3c4ccc(O)cc4C[C@@H](CCCCCCCCC[S+]([O-])CCCC(F)(F)C(F)(F)F)[C@H]3[C@@H]1CC[C@@H]2O (some centres unmarked) [ICI-182, 780]
[8]
  block of E2β-mediated rapid actions in neurons: not blocked
